Reference: US20050164173A1, “Combined treatments and methods for treatment of mycoplasma and mycoplasma-like organism infections” (priority 2001, published 2005)

Test system: mycoplasma-like organisms
Test: tritiated uracil incorporation into mycoplasma-density fractions of CEM culture supernatant (sucrose density gradient)
Type: cell-based
Details: control peak about 1200 counts
Description: As shown in FIGS. 1A-1C, superoxide dismutase (SOD) from a vegetal source has a significant decreasing effect on mycoplasma growth. SOD was included in the medium at the first of the five day experiment. The SOD was purified from melon plant material.

superoxide dismutase [SOD]
peak of tritiated uracil incorporation (mycoplasma growth) (50 μg/ml SOD in medium from first of five days): around 500 counts
peak of tritiated uracil incorporation (mycoplasma growth) (100 μg/ml SOD in medium from first of five days): around 250 counts
